ChEMBL document CHEMBL5230101, “Unique Domain for a Unique Target: Selective Inhibitors of Host Cell DDX3X to Fight Emerging Viruses” (J Med Chem, 2020)
Active and inactive are the calls of the source. The calls are words filed in the database; no cut-off is given here.

Columns and labels:
[1] = target: ATP-dependent RNA helicase DDX3X (Homo sapiens) (UniProt O00571); experiment: Inhibition of human recombinant full length DDX3X helicase activity expressed in Escherichia coli using dsRNA as substrate measured after 40 mins by FRET assay
ATP-dependent RNA helicase DDX3X (Homo sapiens), sequence (O00571 2-662 limits assumed): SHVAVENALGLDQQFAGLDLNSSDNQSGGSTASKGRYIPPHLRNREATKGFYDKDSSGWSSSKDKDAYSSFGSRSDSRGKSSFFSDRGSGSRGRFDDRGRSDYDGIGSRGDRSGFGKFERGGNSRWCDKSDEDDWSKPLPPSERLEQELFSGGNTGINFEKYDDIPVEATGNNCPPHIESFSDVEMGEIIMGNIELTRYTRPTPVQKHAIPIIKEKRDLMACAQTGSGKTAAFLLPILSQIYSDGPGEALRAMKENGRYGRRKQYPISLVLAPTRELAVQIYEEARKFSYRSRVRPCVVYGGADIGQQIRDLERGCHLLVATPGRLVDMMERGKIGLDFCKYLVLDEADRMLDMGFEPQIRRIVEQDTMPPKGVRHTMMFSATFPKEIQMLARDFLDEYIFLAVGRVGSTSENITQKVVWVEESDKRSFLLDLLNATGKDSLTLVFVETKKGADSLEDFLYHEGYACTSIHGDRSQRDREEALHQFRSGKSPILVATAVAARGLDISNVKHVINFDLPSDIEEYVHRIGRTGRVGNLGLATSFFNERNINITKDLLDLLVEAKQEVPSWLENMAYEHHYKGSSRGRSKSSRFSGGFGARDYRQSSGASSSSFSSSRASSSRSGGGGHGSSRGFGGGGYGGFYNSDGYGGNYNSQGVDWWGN

West Nile virus = experiment: Antiviral activity against WNV infected in human Huh-7 cells preincubated with cells for 1 hr and measured after 4 days by plaque reduction assay; assay type: functional, organism-based
Huh-7 [2] = experiment: Cytotoxicity against human Huh-7 cells incubated for 72 hrs by Cell Titer-Glo luminescence assay; assay type: functional
Huh-7 [3] = experiment: Cytotoxicity against human Huh-7 cells incubated for 3 days by MTT assay; assay type: functional; settings: Huh-7, 72 h, time 3 day
dengue virus type 2 = experiment: Antiviral activity against DENV2 New Guinea C strain infected in human Huh-7 cells measured after 72 hrs by immunodetection assay; assay type: functional, organism-based; settings: Huh-7, 72 h
Homo sapiens [4] = species: Homo sapiens; experiment: Inhibition of human recombinant full length DDX3X E256A mutant helicase activity using dsRNA as substrate measured after 40 mins by FRET assay
Homo sapiens [5] = species: Homo sapiens; experiment: Inhibition of human recombinant full length DDX3X R262A mutant helicase activity using dsRNA as substrate measured after 40 mins by FRET assay
[6] = target: T1, ATP-dependent RNA helicase DDX1 (Homo sapiens) (UniProt Q92499); experiment: Inhibition of human DDX1 helicase activity
T1 sequence (whole entry): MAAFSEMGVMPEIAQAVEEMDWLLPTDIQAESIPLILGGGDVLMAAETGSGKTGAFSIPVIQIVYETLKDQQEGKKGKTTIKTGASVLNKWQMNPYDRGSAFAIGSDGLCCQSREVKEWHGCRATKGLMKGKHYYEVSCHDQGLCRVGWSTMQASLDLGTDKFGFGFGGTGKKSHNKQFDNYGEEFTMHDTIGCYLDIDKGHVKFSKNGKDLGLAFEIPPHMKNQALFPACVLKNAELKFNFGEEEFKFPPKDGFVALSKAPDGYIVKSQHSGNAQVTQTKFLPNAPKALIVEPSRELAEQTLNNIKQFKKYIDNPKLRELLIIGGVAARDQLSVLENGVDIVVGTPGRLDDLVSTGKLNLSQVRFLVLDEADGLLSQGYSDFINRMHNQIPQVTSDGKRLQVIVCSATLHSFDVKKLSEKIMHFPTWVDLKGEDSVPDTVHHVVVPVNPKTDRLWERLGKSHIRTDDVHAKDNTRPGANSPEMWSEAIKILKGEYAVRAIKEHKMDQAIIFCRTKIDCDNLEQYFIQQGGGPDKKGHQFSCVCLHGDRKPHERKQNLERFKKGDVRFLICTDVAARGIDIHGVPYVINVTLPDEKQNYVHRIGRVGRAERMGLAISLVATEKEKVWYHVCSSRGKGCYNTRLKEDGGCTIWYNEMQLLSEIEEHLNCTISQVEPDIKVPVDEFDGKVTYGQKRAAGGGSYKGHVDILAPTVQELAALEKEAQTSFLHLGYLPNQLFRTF

Arabidopsis thaliana = experiment: Inhibition of Arabidopsis thaliana STRS2 helicase activity
Hepacivirus hominis = experiment: Inhibition of Hepatitis C virus NSP 3 helicase activity

Nc1ccc(Nc2nc3ccccc3[nH]2)cc1
ID50 [1]: inactive

NC(=O)c1ncn([C@@H]2O[C@H](CO)[C@@H](O)[C@H]2O)n1 [RIBAVIRIN]
IC50 (West Nile virus): 91500 nM | CC50 (Huh-7 [2]): > 100 µM | CC50 (Huh-7 [3]): > 100 µM

CC(=O)N1c2ccccc2CCc2cc([N+](=O)[O-])ccc21
ID50 [1]: inactive

CC(N)Cc1cn(Cc2ccccc2)c2ccccc12 (stereo not drawn)
ID50 [1]: inactive

Nc1ccc(S(=O)(=O)c2ccccc2)cc1
ID50 [1]: 200000 nM

NCC(O)CN(c1ccccc1)c1ccccc1 (stereo not drawn)
ID50 [1]: 700 nM

NC[C@H](O)CN(c1ccccc1)c1ccccc1
ID50 [1]: 7 nM | IC50 (dengue virus type 2): 12.6 µM | IC50 (West Nile virus): 900 nM | CC50 (Huh-7 [2]): 120 µM | CC50 (Huh-7 [3]): > 100 µM

CNC(=O)N1c2ccccc2CCc2ccccc21
ID50 [1]: inactive

NC[C@@H](O)CN(c1ccccc1)c1ccccc1
ID50 [1]: 6 nM | ID50 (Homo sapiens [4]): 0.3 µM | ID50 (Homo sapiens [5]): 4 nM | ID50 [6]: 58 µM | ID50 (Arabidopsis thaliana): > 100 µM | ID50 (Hepacivirus hominis): > 100 µM | IC50 (dengue virus type 2): 6.3 µM | IC50 (West Nile virus): 880 nM | CC50 (Huh-7 [2]): 79 µM | CC50 (Huh-7 [3]): > 100 µM

CCOC(=O)Nc1ccc2c(c1)N(C(=O)CCN(CC)CC)c1ccccc1CC2
ID50 [1]: inactive

NCC(O)CN(c1ccccc1)c1ccccc1 (racemic) [listing 1 of 2 here]
IC50 (dengue virus type 2): 7.9 µM | IC50 (West Nile virus): 2300 nM | CC50 (Huh-7 [2]): 100 µM | CC50 (Huh-7 [3]): > 100 µM

NCC(O)CN(c1ccccc1)c1ccccc1 (racemic) [listing 2 of 2 here]
ID50 [1]: 2 nM | ID50 (Homo sapiens [4]): 73 µM | ID50 (Homo sapiens [5]): 1 nM | ID50 [6]: 18 µM | ID50 (Arabidopsis thaliana): > 100 µM | ID50 (Hepacivirus hominis): > 100 µM

OC(C#CCN1CCCCC1)(c1ccccc1)c1ccccc1
ID50 [1]: inactive

COc1ccc(CN)cc1Cn1cccn1
ID50 [1]: inactive

CC1CC(C)CN(S(=O)(=O)c2ccc(N)cc2)C1 (stereo not drawn)
ID50 [1]: inactive
